target: T1, glutaminase (GAC) (Homo sapiens, UniProt O94925); assay: glutaminase coupled endpoint assay (Example A); format: biochemical; conditions: inhibition of glutaminase; IC50 tested in an assay of Example A or Example B
T1 sequence (O94925 55-598 isoform O94925-3 limits assumed): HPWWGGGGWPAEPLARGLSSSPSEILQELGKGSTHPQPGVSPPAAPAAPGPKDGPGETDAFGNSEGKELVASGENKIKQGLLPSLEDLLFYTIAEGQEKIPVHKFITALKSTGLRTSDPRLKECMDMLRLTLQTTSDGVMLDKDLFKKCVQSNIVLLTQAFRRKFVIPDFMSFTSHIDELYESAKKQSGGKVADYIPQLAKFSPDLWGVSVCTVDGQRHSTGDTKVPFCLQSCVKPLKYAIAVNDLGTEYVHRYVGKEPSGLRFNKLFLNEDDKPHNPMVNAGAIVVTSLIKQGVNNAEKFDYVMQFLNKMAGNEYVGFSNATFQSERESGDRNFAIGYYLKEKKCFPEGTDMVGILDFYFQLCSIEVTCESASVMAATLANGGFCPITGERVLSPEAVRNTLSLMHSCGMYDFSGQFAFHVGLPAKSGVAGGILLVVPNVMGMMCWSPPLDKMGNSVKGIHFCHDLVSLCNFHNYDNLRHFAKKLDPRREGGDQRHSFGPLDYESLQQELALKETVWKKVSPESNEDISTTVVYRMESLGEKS
Summary of the method: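 Coupled endpoint read-out: glutamate from GAC is converted by excess GDH, and diaphorase recycles NADH to NAD while reducing resazurin to fluorescent resorufin, so loss of signal means inhibition. Compound in DMSO is preincubated with enzyme for 60 min at room temperature before substrate is added. Hits are counterscreened against GDH/diaphorase alone.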

Structure (SMILES)	IC50 [µM]
CN(C(=O)Nc1nnc(CCSCCc2nnc(NC(=O)N(C)c3ccccc3)s2)s1)c1ccccc1 [Compound 18, 1,1′-(5,5′-(thiobis(ethane-2,1-diyl))bis(1,3,4-thiadiazole-5,2-diyl))bis(3-methyl-3-phenylurea)]	1 to 10
CC(C)(C)OC(=O)Nc1nnc(CCS(=O)(=O)CCc2nnc(NC(=O)OC(C)(C)C)s2)s1 [Compound 15, Di-tert-butyl (5,5′-(sulfonylbis(ethane-2,1-diyl))bis(1,3,4-thiadiazole-5,2-diyl))dicarbamate]	0.1 to 0.5
O=C(CCc1ccccc1)Nc1nnc(CCCCCc2nnc(NC(=O)CCc3ccccc3)s2)s1 [Compound 20, N,N′-(5,5′-(pentane-1,5-diyl)bis(1,3,4-thiadiazole-5,2-diyl))bis(3-phenylpropanamide)]	1 to 10
O=C(CCc1cccnc1)Nc1nnc(CCS(=O)(=O)CCc2nnc(NC(=O)CCc3cccnc3)s2)s1 [Compound 35]	0.1 to 0.5
CN(CC(=O)Nc1nnc(CCCCc2nnc(NC(=O)CN(C)C(=O)OC(C)(C)C)s2)s1)C(=O)OC(C)(C)C [Compound 46, Di-tert-butyl 2,2′-(5,5′-(butane-1,4-diyl)bis(1,3,4-thiadiazole-5,2-diyl))bis(azanediyl)bis(2-oxoethane-2,1-diyl)bis(methylcarbamate)]	0.1 to 0.5
CC(=O)NCCCC(=O)Nc1nnc(CCCCc2nnc(NC(=O)CCCNC(C)=O)s2)s1 [Compound 70]	1 to 10
CC(C(=O)Nc1nnc(CCCCc2nnc(NC(=O)C(C)c3ccc(N4Cc5ccccc5C4=O)cc3)s2)s1)c1ccc(N2Cc3ccccc3C2=O)cc1 (stereo not shown) [Compound 50, N,N′-(5,5′-(butane-1,4-diyl)bis(1,3,4-thiadiazole-5,2-diyl))bis(2-(4-(1-oxoisoindolin-2-yl)phenyl)propanamide)]	0.1 to 0.5
CC(=O)NCCC(=O)Nc1nnc(CCCCc2nnc(NC(=O)CCNC(C)=O)s2)s1 [Compound 68]	1 to 10
O=C(CCc1ccco1)Nc1nnc(CCCCc2nnc(NC(=O)CCc3ccco3)s2)s1 [Compound 49, N,N′-(5,5′-(butane-1,4-diyl)bis(1,3,4-thiadiazole-5,2-diyl))bis(3-(furan-2-yl)propanamide)]	0.1 to 0.5
COc1ccc(CC(=O)Nc2nnc(CCS(=O)(=O)CCc3nnc(NC(=O)Cc4ccc(OC)c(OC)c4)s3)s2)cc1OC [Compound 30, N,N′-(5,5′-(2,2′-sulfonylbis(ethane-2,1-diyl))bis(1,3,4-thiadiazole-5,2-diyl))bis(2-(3,4-dimethoxyphenyl)acetamide)]	< 0.1
O=C(Cc1nn[nH]n1)Nc1nnc(CCCCc2nnc(NC(=O)Cc3nn[nH]n3)s2)s1 [Compound 71, N,N′-(5,5′-(butane-1,4-diyl)bis(1,3,4-thiadiazole-5,2-diyl))bis(2-(1H-tetrazol-5-yl)acetamide)]	0.1 to 0.5
NCCCOc1ccc(CC(=O)Nc2nnc(CCS(=O)(=O)CCc3nnc(NC(=O)Cc4ccccc4)s3)s2)cc1 [Compound 36, 2-(4-(3-aminopropoxy)phenyl)-N-(5-(2-((2-(5-(2-phenylacetamido)-1,3,4-thiadiazol-2-yl)ethyl)sulfonyl)ethyl)-1,3,4-thiadiazol-2-yl)acetamide]	< 0.1
O=C(Nc1nnc(CCSCCc2nnc(NC(=O)OC3CCCCC3)s2)s1)OC1CCCCC1 [Compound 8, Dicyclohexyl (5,5′-(thiobis(ethane-2,1-diyl))bis(1,3,4-thiadiazole-5,2-diyl))dicarbamate]	0.5 to 1
O=C(Cc1ccccn1)Nc1nnc(CCSCc2nnc(NC(=O)Cc3ccccn3)s2)s1 [Compound 57]	< 0.1
CC(=O)Oc1cccc(C(=O)Nc2nnc(CCCCc3nnc(NC(=O)c4cccc(OC(C)=O)c4C)s3)s2)c1C [Compound 58]	1 to 10
CC(C)OC(=O)Nc1nnc(CCS(=O)(=O)CCc2nnc(NC(=O)OC(C)C)s2)s1 [Compound 23, Diisopropyl (5,5′-(sulfonylbis(ethane-2,1-diyl))bis(1,3,4-thiadiazole-5,2-diyl))dicarbamate]	0.5 to 1
O=C(CCc1ccccc1O)Nc1nnc(CCCCc2nnc(NC(=O)CCc3ccccc3O)s2)s1 [Compound 45]	< 0.1
Cn1c(=O)c2c(ncn2CC(=O)Nc2nnc(CCCCc3nnc(NC(=O)Cn4cnc5c4c(=O)n(C)c(=O)n5C)s3)s2)n(C)c1=O [Compound 41]	1 to 10
COc1ccc2[nH]cc(CC(=O)Nc3nnc(CCCCc4nnc(NC(=O)Cc5c[nH]c6ccc(OC)cc56)s4)s3)c2c1 [Compound 61, N,N′-(5,5′-(butane-1,4-diyl)bis(1,3,4-thiadiazole-5,2-diyl))bis(2-(5-methoxy-1H-indol-3-yl)acetamide)]	< 0.1
O=C(Cc1ccccn1)Nc1nnc(CCCCCCc2nnc(NC(=O)Cc3ccccn3)s2)s1 [Compound 16, N,N′-(5,5′-(hexane-1,6-diyl)bis(1,3,4-thiadiazole-5,2-diyl))bis(2-(pyridin-2-yl)acetamide)]	1 to 10

Further lines, results first:

IC50 [µM]	Structure (SMILES)
0.1 to 0.5	CN(C)c1ccc(CC(=O)Nc2nnc(CCCCc3nnc(NC(=O)Cc4ccc(N(C)C)cc4)s3)s2)cc1 [Compound 107, N,N′-(5,5′-(butane-1,4-diyl)bis(1,3,4-thiadiazole-5,2-diyl))bis(2-(4-(dimethylamino)phenyl)acetamide)]
0.1 to 0.5	O=C(NCc1ccccc1)c1nnc(CCCCc2nnc(C(=O)NCc3ccccc3)s2)s1 [Compound 100]
0.1 to 0.5	O=C(CC1OC(=O)c2ccccc21)Nc1nnc(CCCCc2nnc(NC(=O)CC3OC(=O)c4ccccc43)s2)s1 (stereo not shown) [Compound 93, N,N′-(5,5′-(butane-1,4-diyl)bis(1,3,4-thiadiazole-5,2-diyl))bis(2-(3-oxo-1,3-dihydroisobenzofuran-1-yl)acetamide)]
0.5 to 1	O=C(Cc1ccc(Cl)nc1)Nc1nnc(CCCCc2nnc(NC(=O)Cc3ccc(Cl)nc3)s2)s1 [Compound 78, N,N′-(5,5′-(butane-1,4-diyl)bis(1,3,4-thiadiazole-5,2-diyl))bis(2-(6-chloropyridin-3-yl)acetamide)]
0.5 to 1	O=C(CNC(=O)c1ccccc1)Nc1nnc(CCCCc2nnc(NC(=O)CNC(=O)c3ccccc3)s2)s1 [Compound 103, N,N′-(2,2′-(5,5′-(butane-1,4-diyl)bis(1,3,4-thiadiazole-5,2-diyl))bis(azanediyl)bis(2-oxoethane-2,1-diyl))dibenzamide]
0.1 to 0.5	COc1ccc(CCCC(=O)Nc2nnc(CCCCc3nnc(NC(=O)CCCc4ccc(OC)cc4)s3)s2)cc1 [Compound 75, N,N′-(5,5′-(butane-1,4-diyl)bis(1,3,4-thiadiazole-5,2-diyl))bis(4-(4-methoxyphenyl)butanamide)]
< 0.1	Cn1nc(CC(=O)Nc2nnc(CCCCc3nnc(NC(=O)Cc4nn(C)c5ccccc45)s3)s2)c2ccccc21 [Compound 122, N,N′-(5,5′-(butane-1,4-diyl)bis(1,3,4-thiadiazole-5,2-diyl))bis(2-(1-methyl-1H-indazol-3-yl)acetamide)]
0.1 to 0.5	COc1cccc(CCC(=O)Nc2nnc(CCCCc3nnc(NC(=O)CCc4cccc(OC)c4OC)s3)s2)c1OC [Compound 106, N,N′-(5,5′-(butane-1,4-diyl)bis(1,3,4-thiadiazole-5,2-diyl))bis(3-(2,3-dimethoxyphenyl)propanamide)]
1 to 10	CNC(=O)c1nnc(CCSCCc2nnc(C(=O)NC)s2)s1 [Compound 77]
0.1 to 0.5	O=C(Nc1nnc(CCCCc2nnc(NC(=O)C3CCCCC3)s2)s1)C1CCCCC1 [Compound 90, N,N′-(5,5′-(butane-1,4-diyl)bis(1,3,4-thiadiazole-5,2-diyl))dicyclohexanecarboxamide]
< 0.1	O=C(Cc1n[nH]c2ccccc12)Nc1nnc(CCCCc2nnc(NC(=O)Cc3n[nH]c4ccccc34)s2)s1 [Compound 126, N,N′-(5,5′-(butane-1,4-diyl)bis(1,3,4-thiadiazole-5,2-diyl))bis(2-(1H-indazol-3-yl)acetamide)]
0.1 to 0.5	O=C(Nc1nnc(CCCCc2nnc(NC(=O)c3cccc4ccccc34)s2)s1)c1cccc2ccccc12 [Compound 85, N,N′-(5,5′-(butane-1,4-diyl)bis(1,3,4-thiadiazole-5,2-diyl))di-1-naphthamide]
< 0.1	COc1ccc2[nH]cc(CC(=O)Nc3nnc(CCCCc4nnc(NC(C)=O)s4)s3)c2c1 [Compound 129]
< 0.1	O=C(Cc1ccc(F)c(F)c1)Nc1nnc(CCCCc2nnc(NC(=O)Cc3ccc(F)c(F)c3)s2)s1 [Compound 83, N,N′-(5,5′-(butane-1,4-diyl)bis(1,3,4-thiadiazole-5,2-diyl))bis(2-(3,4-difluorophenyl)acetamide)]

From US10414740B2, “Glutaminase inhibitors and method of use” (Agios Pharmaceuticals, Inc., priority 2012, dated 2019)
